Values quoted from earlier work in patent publication US8524769B2, “Process for producing a fraction enriched up to 100% of 3-O-acetyl-11-keto-beta-boswellic acid from an extract containing a mixture of boswellic acids” (Laila Impex, priority 2002, dated 2013).

Test system: 5-lipoxygenase (5-LO)
Conditions: compared among all six boswellic acids; Sailer et al., British J. Pharmacology 117, 615-618, 1996

5-lipoxygenase (5-LO), sequence (P09917 whole entry, species assumed): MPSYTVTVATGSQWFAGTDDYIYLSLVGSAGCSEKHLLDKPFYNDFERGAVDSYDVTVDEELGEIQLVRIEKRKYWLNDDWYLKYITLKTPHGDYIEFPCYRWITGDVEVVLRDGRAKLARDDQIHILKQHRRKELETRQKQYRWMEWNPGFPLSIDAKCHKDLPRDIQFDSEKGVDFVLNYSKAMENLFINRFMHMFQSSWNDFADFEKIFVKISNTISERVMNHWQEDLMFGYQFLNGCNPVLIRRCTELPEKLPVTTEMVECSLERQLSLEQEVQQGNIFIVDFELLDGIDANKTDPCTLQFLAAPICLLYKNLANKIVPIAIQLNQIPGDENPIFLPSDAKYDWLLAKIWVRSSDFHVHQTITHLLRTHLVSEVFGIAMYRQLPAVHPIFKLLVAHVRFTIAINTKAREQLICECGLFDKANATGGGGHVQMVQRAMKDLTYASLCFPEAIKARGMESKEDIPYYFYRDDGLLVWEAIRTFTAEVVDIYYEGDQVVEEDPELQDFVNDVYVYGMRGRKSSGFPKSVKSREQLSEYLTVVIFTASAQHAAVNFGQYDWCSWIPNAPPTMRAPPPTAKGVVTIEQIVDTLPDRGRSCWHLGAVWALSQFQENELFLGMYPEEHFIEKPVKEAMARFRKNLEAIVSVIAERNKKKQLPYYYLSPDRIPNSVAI

In the case of “3-O-acetyl-11-keto-β-boswellic acid [AKBA]”, the “inhibitory activity on 5-lipoxygenase” value is given as “most pronounced inhibitory activity”.
